# Measured values published in patent US20110165594A1, “SYSTEMIC MARKERS FOR ASTHMA AND ANALOGOUS DISEASES” (THE CLEVELAND CLINIC FOUNDATION, priority 2005, published 2011).
# How the values were obtained:
# Type in all cases: cell-based, human
# SOD = SOD activity (rate of cytochrome c reduction) in BET1A cells
# Procedure: Cell Culture. BET1A, a human bronchial epithelial cell line, was cultured in serum-free Lechner and […] medium (LHC-8, Biofluids, Inc., Rockville, Md.) with additives 0.33 nM retinoic acid, […] epinephrine and the antibiotic combination, 1% penicillin/streptomycin, on plates pre-coated with coating media containing 29 μg/ml collagen (Vitrogen: Collagen Corp., Palo Alto, Calif.), 10 μg/ml bovine serum albumin (Biofluids, Rockville, Md.), and 10 μg/ml fibronectin (Calbiochem, La Jolla, Calif.) for 5 min. HAEC obtained by bronchial brushing were cultured in serum-free Lechner and […] media (LHC8) on plates pre-coated with coating media ([…], et al., Cancer Res 1988, 48:1904-1909). […] T. Baker Inc, […], et al., FASEB J 2001, 15:70-78), or hydrogen peroxide (Sigma, St. Louis, Mo.) in a dose and time dependent manner. 293T cells, a clone of 293 (human embryonic kidney fibroblast cells) that expresses the Simian virus 40 large-T antigen, were maintained in DMEM (Invitrogen) with 10% FCS. Antioxidant assays. Bronchial epithelial cells (BET1A) exposed to 5 µM 2-ME for 30 min to 24 h, or serum of asthmatic individuals, were assayed for glutathione (GSH), glutathione peroxidase (GPx), catalase, and SOD activity. SOD activity was determined by the rate of reduction of cytochrome c, with one unit (U) of SOD activity defined as the amount of SOD required to inhibit the rate of cytochrome c reduction by 50% (Nebot C, et al., Anal Biochem 1993, 214:442-451). The final reaction volume was 3 ml and included 50 mM potassium phosphate buffer, […] cytochrome c, 0.05 mM xanthine, and a 0.1 mM EDTA solution. Xanthine oxidase (Sigma, St Louis, Mo.) was added at a concentration sufficient to induce a 0.020 per minute change in absorbance at 550 nm. GSH levels were measured as previously described (Comhair S A, et al., Am J Respir Crit Care Med 1999, 159:1824-1829).
# GSH = assay: Intracellular GSH in BET1A cells
# Procedure: Antioxidant assays. Bronchial epithelial cells (BET1A) exposed to 5 µM 2-ME for 30 min to 24 h, or serum of asthmatic individuals, were assayed for glutathione (GSH), glutathione peroxidase (GPx), catalase, and SOD activity. SOD activity was determined by the rate of reduction of cytochrome c, with one unit (U) of SOD activity defined as the amount of SOD required to inhibit the rate of cytochrome c reduction by 50% (Nebot C, et al., Anal Biochem 1993, 214:442-451). The final reaction volume was 3 ml and included 50 mM potassium phosphate buffer, […] cytochrome c, 0.05 mM xanthine, and a 0.1 mM EDTA solution. Xanthine oxidase (Sigma, St Louis, Mo.) was added at a concentration sufficient to induce a 0.020 per minute change in absorbance at 550 nm. GSH levels were measured as previously described (Comhair S A, et al., Am J Respir Crit Care Med 1999, 159:1824-1829).
# caspase-3 = assay: Caspase-3-like enzyme activity in BET1A cells; conditions: time dependent
# Procedure: Cell Culture. BET1A, a human bronchial epithelial cell line, was cultured in serum-free Lechner and LaVeck medium (LHC-8, Biofluids, Inc., Rockville, Md.) with additives 0.33 nM retinoic acid, […] epinephrine and the antibiotic combination, 1% penicillin/streptomycin, on plates pre-coated with coating media containing 29 μg/ml collagen (Vitrogen: Collagen Corp., Palo Alto, Calif.), 10 μg/ml bovine serum albumin (Biofluids, Rockville, Md.), and 10 μg/ml fibronectin (Calbiochem, La Jolla, Calif.) for 5 min. HAEC obtained by bronchial brushing were cultured in serum-free Lechner and LaVeck media (LHC8) on plates pre-coated with coating media (Reddel R R, et al., Cancer Res 1988, 48:1904-1909). To evaluate oxidant stress and antioxidants in apoptotic events, BET-1A cells were stimulated at 70% confluence with SOD inhibitor, 2-Methoxyoestradiol (2-ME) (Sigma, St Louis, Mo.), or pyrogallol, a superoxide generating compound (J. T. Baker Inc, Phillipsburg, N.J.) (Comhair S A, et al., FASEB J 2001, 15:70-78), or hydrogen peroxide (Sigma, St. Louis, Mo.) in a dose and time dependent manner. […]
# Caspase-3-like enzyme activity. Caspase-3-like activity was measured by a […] assay (BD PharMingen, San Diego, Calif.). […] AMC fluorescence is quantified by UV spectrofluorometry with an excitation wavelength of 380 nm and an emission wavelength range of 420-460 nm.
# BET1A-cells = assay: Tyrosine nitrated proteins in BET1A cells (anti-nitrotyrosine Western, 2D gel)
# Procedure: Western Blot Assay. Airway epithelial cells freshly obtained by bronchoscopic brushing from asthmatics and healthy controls, or BET1A cells, were suspended in buffer (3 mM dithiothreitol, 5 μg/ml aprotinin, 1 μg/ml leupeptin and pepstatin A, 0.1 mM PMSF, 1% NP40 and 40 mM Hepes pH 7.5) and cell lysate prepared by three cycles of freeze/thaw. Total protein was measured by using the Coomassie protein assay (Pierce, Rockford, Ill.). Whole cell lysate protein was denatured and reduced by treatment with buffer containing 0.05 M Tris (pH 6.8), 1% sodium dodecyl sulfate (SDS), 10% glycerol, 0.00125% bromphenol blue and 0.5% β mercaptoethanol for 3 minutes at 95° C. Total protein was separated by electrophoresis on a 10% SDS-polyacrylamide gel, and then electrophoretically transferred onto nitrocellulose (NitroBind EP4HY315F5, Fisher Scientific, Pittsburgh, Pa.) or Polyvinylidene Difluoride membrane (Pierce, Rockford, Ill.) for 1 h at 4° C. Membranes were incubated with blocking buffer [5% non fat dry milk in TBS (20 mM Tris-HCl (pH 7.0) and 137 mM NaCl) with 0.1% Tween] for 1 h at room temperature to block nonspecific binding and then probed with a primary antibody in blocking buffer overnight at 4° C. […]
# Two dimentional gel electrophoresis. […] Total Protein was measured by using Coomassie protein assay (Pierce, Rockfod, Ill.). […]
# BAX = BAX levels by Western blot; conditions: BET1A cells
# Procedure: (§1) Cell Culture. BET1A, a human bronchial epithelial cell line, was cultured in serum-free Lechner and LaVeck medium (LHC-8, Biofluids, Inc., Rockville, Md.) with additives 0.33 nM retinoic acid, […] epinephrine and the antibiotic combination, 1% penicillin/streptomycin, on plates pre-coated with coating media containing 29 μg/ml collagen (Vitrogen: Collagen Corp., Palo Alto, Calif.), 10 μg/ml bovine serum albumin (Biofluids, Rockville, Md.), and 10 μg/ml fibronectin (Calbiochem, La Jolla, Calif.) for 5 min. HAEC obtained by bronchial brushing were cultured in serum-free Lechner and LaVeck media (LHC8) on plates pre-coated with coating media (Reddel R R, et al., Cancer Res 1988, 48:1904-1909). To evaluate oxidant stress and antioxidants in apoptotic events, BET-1A cells were stimulated at 70% confluence with SOD inhibitor, 2-Methoxyoestradiol (2-ME) (Sigma, St Louis, Mo.), or pyrogallol, a superoxide generating compound (J. T. Baker Inc, Phillipsburg, N.J.) (Comhair S A, et al., FASEB J 2001, 15:70-78), or hydrogen peroxide (Sigma, St. Louis, Mo.) in a dose and time dependent manner. 293T cells, a clone of 293 (human embryonic kidney fibroblast cells) that expresses the Simian virus 40 large-T antigen, were maintained in DMEM (Invitrogen) with 10% FCS.
# (§2) Western Blot Assay. […] Total protein was measured by using the Coomassie protein assay (Pierce, Rockford, Ill.). […]
# SOD protein = SOD protein in treated BET1A cells
# Procedure: as §1, §2
# BET1A cells [1] = assay: Apoptosis detection by Annexin V binding
# Procedure: Cell Culture. BET1A, a human bronchial epithelial cell line, was cultured in serum-free Lechner and […] medium (LHC-8, Biofluids, Inc., Rockville, Md.) with additives 0.33 nM retinoic acid, […] epinephrine and the antibiotic combination, 1% penicillin/streptomycin, on plates pre-coated with coating media containing 29 μg/ml collagen (Vitrogen: Collagen Corp., Palo Alto, Calif.), 10 μg/ml bovine serum albumin (Biofluids, Rockville, Md.), and 10 μg/ml fibronectin (Calbiochem, La Jolla, Calif.) for 5 min. HAEC obtained by bronchial brushing were cultured in serum-free Lechner and […] media (LHC8) on plates pre-coated with coating media ([…], et al., Cancer Res 1988, 48:1904-1909). […] T. Baker Inc, […], et al., FASEB J 2001, 15:70-78), or hydrogen peroxide (Sigma, St. Louis, Mo.) in a dose and time dependent manner. 293T cells, a clone of 293 (human embryonic kidney fibroblast cells) that expresses the Simian virus 40 large-T antigen, were maintained in DMEM (Invitrogen) with 10% FCS. Cell Viability and Apoptosis detection. Cell viability was assessed by bright-field microscopy using a trypan blue dye (0.4%) exclusion method. The mean survival was determined by examining four different low power fields. Annexin V binding was used to detect apoptotic cells as previously described (Trautmann A, et al., J Allergy Clin Immunol 2001, 108:839-846). Briefly, cells were incubated with 1.0 μg/mL annexin V-FITC and 2.5 μg/mL propidium iodide (BD Biosciences, Palo Alto, Calif.). The stained cells were analyzed with a FACScan (Becton Dickinson, San Jose, Calif.), using an argon ion laser at 488 nm and emission recorded at 520 nm with band pass and short pass filters. Gating was done on the forward angle and right angle light scatter only to exclude debris and cell clumps. […] The RFI was calculated using the ratio of the linearized mean fluorescence of the cell populations, as provided by the CellQuest software (Becton Dickinson, San Jose, Calif.). Apoptotic cells are identified as the Annexin positive-PI negative fraction.
# BET1A cells [2] = assay: Cell viability by trypan blue exclusion
# Procedure: BET1A, a human bronchial epithelial cell line, was cultured in serum-free Lechner and LaVeck medium (LHC-8, Biofluids, Inc., Rockville, Md.) with additives 0.33 nM retinoic acid, 2.75 mM epinephrine and the antibiotic combination, 1% penicillin/streptomycin, on plates pre-coated with coating media containing 29 μg/ml collagen (Vitrogen: Collagen Corp., Palo Alto, Calif.), 10 μg/ml bovine serum albumin (Biofluids, Rockville, Md.), and 10 μg/ml fibronectin (Calbiochem, La Jolla, Calif.) for 5 min.
# MnSOD = MnSOD silencing by siRNA in 293T cells, caspase-3 activity; conditions: 48 h after transfection
# Procedure: Caspase-3-like enzyme activity. Caspase-3-like activity was measured by a […] assay (BD PharMingen, San Diego, Calif.). This assay measures active caspase-3 binding to fluorogenic Ac-DEVD-AMC substrate and its cleavage to release the fluorescent AMC. AMC fluorescence is quantified by UV spectrofluorometry with an excitation wavelength of 380 nm and an emission wavelength range of 420-460 nm.
# Transfection of siRNA MnSOD. MnSOD siRNA was synthesized by Ambion (Austin, Tex.). The sense and antisense MnSOD siRNA were 5-GGAACAACAGGCCUUAUUCtt-3 (sense) and 5-GAAUAAGGCCUGUUGUUCCtt-3 (antisense). Silencer™ Negative control #1 siRNA (siRNA control) (Ambion, Austin Tex.) was used as a control. 293T-cells, at 60% confluence in […] plates, were transfected in serum-free medium (DMEM, Invitrogen, Carlsbad Calif.) by using lipofectamine reagent (Invitrogen, Carlsbad Calif.) according to the manufacturer's instructions. For the silencing experiments, cells were transfected with […] of MnSOD siRNA or with 50 nM of Silencer™ Negative Control #1 siRNA. 48 h after transfection, cells were washed, trypsinized and harvested for evaluation of mRNA, protein expression, and caspase-3 activity.
molecule,measurement,setting,value
"COc1cc2c(cc1O)CC[C@@H]1[C@@H]2CC[C@]2(C)[C@@H](O)CC[C@@H]12 [2-ME, 2-Methoxyoestradiol]",blocked the activity of SOD,"SOD; 5 μM, 3 h, p=0.004",up to 86%
same,intracellular GSH,GSH,rapid depletion of intracellular GSH
same,caspase-3 activity,caspase-3,significantly increased
same,tyrosine nitrated proteins,BET1A-cells,increase in tyrosine nitrated proteins
same,BAX levels,BAX,upregulation of BAX levels
same,SOD protein,SOD protein,did not cause a decrease of SOD protein
same,apoptotic cells (Annexin V staining),BET1A cells [1],increase in apoptotic cells as early as 17 h
same,cell viability (trypan blue),BET1A cells [2],decrease in cell viability
"MnSOD siRNA: siRNA, sense 5-GGAACAACAGGCCUUAUUCtt-3, antisense 5-GAAUAAGGCCUGUUGUUCCtt-3, synthesized by Ambion (sense GGAACAACAGGCCUUAUUCTT; antisense GAAUAAGGCCUGUUGUUCCTT; 3' tt overhangs, chemistry not given here, further chemistry not given here)",caspase-3 activation,MnSOD,caspase-3 activation
"OO [H202, hydrogen peroxide]",SOD activity,SOD,loss of SOD activity
same,apoptosis,BET1A cells [1],increased apoptosis
Oc1cccc(O)c1O [pyrogallol],SOD activity,SOD,loss of SOD activity
same,apoptosis,BET1A cells [1],increased apoptosis
